This note sets out measurements from patent publication US12630563B2, “Macrocyclic RIP2-kinase inhibitors” (Oncodesign S.A., priority 2020, dated 2026).

Each structure is given as a SMILES string.

In this assay the target is T1, recombinant hRIPK2 protein (kinase domain aa 1-299-His-tagged) (Homo sapiens, UniProt O43353).
T1 construct: kinase domain aa 1-299-His-tagged; purchased Life Technologies PR7829A
The assay is described as follows: RIPK2 AlphaLISA assay (displacement of bead-bound CZC-8004 from hRIPK2). It counts as binding. The conditions noted are these: recombinant hRIPK2 kinase domain 10 nM, 2 h at 23° C. The text has this: RIPK2 AlphaLISA® Assay (Amplified Luminescent Proximity Homogeneous Assay)
A non-specific kinase inhibitor (CZC-8004 Cayman #916603-07-1) bound to an acceptor bead (#6772001 PerkinElmer) was mixed to the recombinant hRIPK2 protein (kinase domain aa 1-299-His-tagged—Life Technologies PR7829A) and a Ni2+-tagged donor beads (#AS101D PerkinElmer). In the presence of an inhibitor, the compound beads displacement from hRIPK2 was followed by signal loss. In a 384-well ProxiPlate@ (Perkin Elmer, 6008280) add:
2 μL RIPK2 inhibitor (in DMSO 0.8%).
2 μL human recombinant RIPK2 (10 nM diluted in AlphaLISA buffer 1×).
4 μL Mix of […] 1/1000 in AlphaLISA buffer 1×.
Homogenize using a microtiter plate shaker and incubate for 2 h at 23° C.
Read using EnVision®-Alpha Reader (PerkinElmer) according to manufacturer specifications.

T1 sequence (O43353 1-299): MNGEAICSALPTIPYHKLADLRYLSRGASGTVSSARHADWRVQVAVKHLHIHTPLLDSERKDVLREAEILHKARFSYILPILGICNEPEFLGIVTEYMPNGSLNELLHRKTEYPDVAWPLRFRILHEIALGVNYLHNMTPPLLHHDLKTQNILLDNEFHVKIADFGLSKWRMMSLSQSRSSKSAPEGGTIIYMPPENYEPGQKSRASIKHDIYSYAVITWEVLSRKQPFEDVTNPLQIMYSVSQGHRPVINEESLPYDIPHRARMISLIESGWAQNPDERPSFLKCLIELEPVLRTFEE

Take `CO[C@@H]1C[C@H]2COc3nc4c(cnn4cc3C)-c3cc(F)cc(c3)NCCN2C1=O` [Example 30, (12R,14S)-4-fluoro-12-methoxy-18-methyl-16-oxa-7,10,20,21,24-pentaazapentacyclo[15.5.2.1^2,6.0^10,^14.0^20,^23]pentacosa-1(23),2(25),3,5,17(24),18,21-heptaen-11-one]: the IC50 is less than 10 nM.
With `CO[C@@H]1C[C@H]2COc3nc4c(cnn4cc3C)-c3cc(CO)cc(c3)NCCN2C1=O` [Example 64, (12R,14S)-4-(hydroxymethyl)-12-methoxy-18-methyl-16-oxa-7,10,20,21,24-pentaazapentacyclo[15.5.2.1^2,6.0^1°,^14.0^2°,^23]pentacosa-1(23),2,4,6(25),17(24),18,21-heptaen-11-one] the figure was 10 to 100 nM; with `[2H]C([2H])([2H])Oc1cc2cc(c1)-c1cnn3ccc(nc13)OC[C@@H]1C[C@@H](OCC)C(=O)N1CCN2` [Example 94, (12R,14S)-12-ethoxy-4-(^2H3)methoxy-16-oxa-7,10,20,21,24-pentaazapentacyclo[15.5.2.1^2,6.0^10,^14.0^20,^23]pentacosa-1(23),2(25),3,5,17(24),18,21-heptaen-11-one], less than 10 nM; with `COCCO[C@@H]1C[C@H]2COc3nc4c(cnn4cc3OC(C)C)-c3cc(cc(OC)c3)NCCN2C1=O` [Example 125, (12R,14S)-4-methoxy-12-(2-methoxyethoxy)-18-(propan-2-yloxy)-16-oxa-7,10,20,21,24-pentaazapentacyclo[15.5.2. 1^2,6.0^10,^14.0^20,^23]pentacosa-1(23),2,4,6(25),17(24),18,21-heptaen-11-one], less than 10 nM.
With `CO[C@@H]1C[C@H]2COc3ccn4ncc(c4n3)-c3cc(cc(-c4ncon4)c3)NCCN2C1=O` [Example 76, (12R,14S)-12-methoxy-4-(1,2,4-oxadiazol-3-yl)-16-oxa-7,10,20,21,24-pentaazapentacyclo[15.5.2.1^2,6.0^1°,^14.0^2°,^23]pentacosa-1(23),2(25),3,5,17(24),18,21-heptaen-11-one] the figure was less than 10 nM; with `CO[C@@H]1C[C@H]2COc3nc4c(cnn4cc3C)-c3cc(cc(OCC4CC4)c3)NCCN2C1=O` [Example 48, (12R,14S)-4-(cyclopropylmethoxy)-12-methoxy-18-methyl-16-oxa-7,10,20,21,24-pentaazapentacyclo[15.5.2.1^2,6.0^10,^14.0^20,^23]pentacosa-1(23),2,4,6(25),17(24),18,21-heptaen-11-one], 100 to 11000 nM.
With `COc1cc2cc(c1)-c1cnn3ccc(nc13)OC[C@@H]1C[C@@H](OCC3CCO3)C(=O)N1CCN2` (stereo partly drawn) [Example 120, (12R,14S)-4-methoxy-12-(oxetan-2-ylmethoxy)-16-oxa-7,10,20,21,24-pentaazapentacyclo[15.5.2.1^2,6.0^1°,^14.0^2°,^23]pentacosa-1(23),2,4,6(25),17(24),18,21-heptaen-11-one], the IC50 was less than 10 nM.
With `CO[C@@H]1C[C@H]2COc3ccn4ncc(c4n3)-c3cc(Cl)cc(c3)NCCN2C1=O` [Example 4, (12R,14S)-4-chloro-12-methoxy-16-oxa-7,10,20,21,24-pentaazapentacyclo[15.5.2.1^2,6.0^10,^14.0^20,^23]pentacosa-1(23),2(25),3,5,17(24),18,21-heptaen-11-one] the figure was less than 10 nM; with `COCc1cc2cc(c1)-c1cnn3cc(C)c(nc13)OC[C@@H]1CC(OC)C(=O)N1CCN2` (single isomer, unassigned) [Example 66, (12R or S,14S)-12-methoxy-4-(methoxymethyl)-18-methyl-16-oxa-7,10,20,21,24-pentaazapenta cyclo[15.5.2.1^2,6.0^10,14.0^20,23]pentacosa-1(23),2,4,6(25),17(24), 18,21-heptaen-11-one], less than 10 nM; with `CO[C@@H]1C[C@H]2COc3nc4c(cnn4cc3-c3cn(C)nc3C)-c3cc(F)cc(c3)NCCN2C1=O` [Example 69], less than 10 nM.

The IC50 is the concentration needed to halve the response being measured.
